Values of other authors as cited in US20030099599A1, “Antibiotic spray” (priority 2001, published 2003).

Test system: group A streptococcal tonsillopharyngitis
Details: recurrence within 2 months

penicillin
GAS tonsillopharyngitis treated with penicillin that recurs: About 25%
